# Entries after “also recorded” stand apart in the source; their conditions may differ.
# Tests used:
# [1] = Diffusion of flutax-1 from anchored CNT array; assay type: physicochemical
# [2] = Rubbing experiment (mechanical drug removal) with glass slide; assay type: physicochemical; settings: for flutax-1 removed (washed-out) by rubbing: approx. 125 μg deposited, 1 μL DI water, 500 g weight, 60 seconds
# Description: Another experiment was performed that targeted possible drug removal from CNT-fitted drug delivery platform by mechanical (e.g., rubbing) actions during its cardiovascular travel. Two types of specimens were used, a bare sheet of latex and a sheet of latex with CNTs anchored on one side. On each specimen, approximately 125 μg of flutax-1 was deposited by successively dropping small volumes of its ethanol solution and allowed to dry. Next, 1 μL of DI water followed by a microscopic 3×1×5/128-inch glass slide was put on each specimen. Finally, with a 500 g weight on top of it, the microscopic slide was moved back and forth a few millimeters at about 1 cm/sec for 60 seconds (FIG. 8). […] After the test, each of the two specimens was dropped in 2 mL of pure ethanol to see if they still had flutax-1 left on them.
# [3] = paclitaxel-eluting composite fibers, most of it over 30 days; cited from earlier work
Structure (SMILES),movement (diffusion) of flutax-1 molecules ([1]; in DI water),"movement (diffusion) of flutax-1 molecules, time scale ([1]; in agar)","flutax-1 remaining after rubbing, recovered in 2 mL pure ethanol ([2]; CNT-fitted latex sheet)",flutax-1 removed (washed-out) by rubbing ([2]; CNT-fitted latex sheet),"flutax-1 remaining after rubbing, recovered in 2 mL pure ethanol ([2]; bare latex sheet)",flutax-1 removed (washed-out) by rubbing ([2]; bare latex sheet),drug delivered from stent [3]
CC(=O)O[C@H]1C(=O)[C@@]2(C)C([C@H](OC(=O)c3ccccc3)[C@]3(O)C[C@H](OC(=O)[C@H](O)[C@@H](NC(=O)c4ccccc4)c4ccccc4)C(C)=C1C3(C)C)[C@]1(OC(C)=O)CO[C@@H]1C[C@@H]2OC(=O)[C@H](C)NC(=O)c1ccc(-c2c3ccc(=O)cc-3oc3cc(O)ccc23)c(C(=O)O)c1 (stereo partly shown) [flutax-1],did not move appreciably,in a matter of minutes,much flutax-1 still remains; also recorded: considerably more flutax-1 released,almost no,no more flutax-1 remains,significant amount; also recorded: considerably higher flutax-1 removal,
CC(=O)O[C@H]1C(=O)[C@@]2(C)[C@H]([C@H](OC(=O)c3ccccc3)[C@]3(O)C[C@H](OC(=O)[C@H](O)[C@@H](NC(=O)c4ccccc4)c4ccccc4)C(C)=C1C3(C)C)[C@]1(OC(C)=O)CO[C@@H]1C[C@@H]2O [paclitaxel],,,,,,,about 40%
